What all share (format): functional, cell-based
The nature of assay [1]: Cytotoxicity against human Bel cells after 5 days by MTT method. To be noted: 120 h.
A further assay has as its system HCT-8. As to the kind of experiment: Cytotoxicity against human HCT8 cells after 5 days by MTT method. Conditions: HCT-8, 120 h. In general terms: Tetrazolium assays rely on reduction of a dye to a coloured formazan, in cell work by metabolically active cells.
The next assay deals with KB. As to the kind of experiment: Cytotoxicity against human KB cells after 5 days by MTT method. Conditions: 120 h.

Here are results for one compound from ChEMBL document CHEMBL1141739, “Donnaienin, a New Acetogenin Bearing a Hydroxylated Tetrahydrofuran Ring” (J Nat Prod, 1998).

In brackets after ≈: the same amount, converted by molar mass. Where only a bound is given, the exact number is not on record here.

The term IC50 denotes the concentration that inhibits the measured activity by half. Low readings indicate greater potency, high ones weaker potency.

Regarding `CCCCCCCCCCCCCC[C@H](O)[C@@H]1C[C@@H](O)[C@@H]([C@@H](O)CC[C@@H](O)CCCCC[C@@H](O)CC2=C[C@H](C)OC2=O)O1` [DONNAIENIN], the figures for the IC50 (in assay [1]; in the assay on HCT-8; with KB) were 6.7 µg/mL (≈ 10.9 µM), > 10 µg/mL and > 10 µg/mL, respectively.
